# In PMC11234460, “In Silico Discovery of Stapled Peptide Inhibitor Targeting the Nur77‐PPARγ Interaction and Its Anti‐Breast‐Cancer Efficacy” (Advanced Science, 2024):
# Where a SMILES comes first, the peptide text is derived from it. Bridges are numbered along the chain shown (N, C = ends). [ ]: non-standard residue; d: D form. S5 = C=CCCC[C@](C)(N)C(=O)O
# Legend:
# Nur77-PPARγ complex = target: T1, Nur77-PPARγ complex (Homo sapiens, UniProt P22736); assay: NanoBiT assay of Nur77-PPARγ complex formation in HEK293T cells; type: cell-based; settings: 1 × 10^−5 M peptide, 1 h, n = 3
# T1 construct: expressed in transfected cells; host or cells: HEK293T
# T1 sequence (P22736 whole entry, one chain of several): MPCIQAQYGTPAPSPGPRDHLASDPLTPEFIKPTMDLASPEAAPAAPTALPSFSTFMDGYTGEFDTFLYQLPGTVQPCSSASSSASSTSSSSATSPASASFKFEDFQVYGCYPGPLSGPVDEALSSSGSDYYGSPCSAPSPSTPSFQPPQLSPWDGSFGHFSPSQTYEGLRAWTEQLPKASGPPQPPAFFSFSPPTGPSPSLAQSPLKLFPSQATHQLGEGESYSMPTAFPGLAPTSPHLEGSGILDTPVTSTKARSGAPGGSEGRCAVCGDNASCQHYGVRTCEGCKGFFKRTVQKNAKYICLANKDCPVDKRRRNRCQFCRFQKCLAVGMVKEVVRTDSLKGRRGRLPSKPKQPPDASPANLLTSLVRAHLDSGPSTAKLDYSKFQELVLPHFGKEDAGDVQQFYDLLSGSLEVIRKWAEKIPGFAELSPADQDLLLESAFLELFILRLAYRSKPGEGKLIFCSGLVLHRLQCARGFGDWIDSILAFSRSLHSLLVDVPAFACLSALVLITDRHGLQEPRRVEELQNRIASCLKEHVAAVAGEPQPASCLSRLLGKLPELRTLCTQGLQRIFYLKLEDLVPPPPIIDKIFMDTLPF
# Experimental: HEK293T cells were seeded in a poly‐d‐lysine‐coated black 96‐well cell culture plate at 10 000 cells per well in 100 µL culture medium. The next day, the master mix of 100 ng receptor construct containing the PPARγ‐LargeBit and SmallBit‐Nur77 plasmids (w/w, 50 ng:50 ng) was diluted in Opti‐MEM Medium (Gibco, 11058‐021), then P3000 Reagent was added. Meanwhile, 0.15 µL Lipofectamine 3000 reagent (ThermoFisher, L3000015) was added to 5 µL Opti‐MEM Medium. Subsequently, diluted DNA was added to Lipofectamine 3000 reagent (V/V, 1:1) and incubated for 15 min at room temperature. A mixture containing the above plasmids and Lipofectamine 3000 was prepared and added to each well. After 24 h, the cells were treated with 1 × 10^−5 M peptides (TAT, T‐CY14, S‐CY14, and ST‐CY14) or variable concentrations of ST‐CY‐14 (0.1/0.2/0.5/1/2/5/10/20/40 × 10^−6 M) for 1 h. The culture medium was replaced with 90 µL Tyrode's solution (Solarbio, T1420). Then, 10 µL furimazine (5 × 10^−5 M) was added to each well and the luminescence signal was measured every 86 s for 1 h at 37 °C.
# MDA-MB-231 cells [1] = assay: qPCR of CD36 and FABP4; type: cell-based; settings: n = 3
# MCF7 cells = assay: Energy metabolism analysis (Seahorse OCR); type: cell-based, human; settings: MCF7, 24 h treatment, n = 3
# Experimental: Cell energy metabolism analysis was conducted using a Seahorse cell energy metabolism analyzer (Agilent, USA). In brief, 8000 cells were seeded per well in a 96‐well XF96 plate (Agilent, 103794‐100) and cultured overnight. Subsequently, the cells were treated with various concentrations of peptides for 24 h. To prepare for metabolic stress injections, cartridge plates (Agilent, w15023) were hydrated with H2O for at least 12 h at 37 °C before the assay. 1 h before detection, the medium in each well was replaced with 180 µL XF calibrant solution (Agilent, 100840‐000), Afterward, the cell plate was replaced with 180 µL XF DMEM (Agilent, 103575‐100) with glucose (1 × 10^−2 M) (Agilent, 103577‐100), pyruvate (1 × 10^−3 M) (Agilent, 103578‐100) and glutamine (2 × 10^−3 M) (Agilent, 103579‐100) and the mixture was incubated in a CO2‐free incubator at 37 °C for 1 h. Then, 20 µL basic medium, 22 µL 1.5 × 10^−4 M oligomycin, 25 µL 1.5 × 10^−4 M FCCP, and 27 µL 5 × 10^−5 M ROT/AA (Agilent, 10315‐100) were added to wells A, B, C, and D, respectively, of the cartridge plates. The assay was carried out according to the manufacturer's instructions, and the OCR was reported in picomoles per min. The results were normalized to the cell number determined by the CCK‐8 assay.
# MDA-MB-231 cells [2] = assay: Transwell cell migration analysis; type: cell-based; settings: MDA-MB-231, 12 h
# Experimental: 600 µL DMEM complete medium was added to the lower chamber of the Transwell. Next, 2×10^4 cells in 100 µL DMEM medium, containing 1, 2, 5, 10, or 2 × 10^−5 M peptides, were added to the upper chamber of the Transwell. The cells were incubated for 12 h at 37 °C and 5% CO2. After the incubation period, the medium was discarded, and the chamber was washed with PBS. The cells were then fixed with 4% paraformaldehyde for 20 min. The upper chamber was subsequently soaked in crystal violet for 20 min, washed with PBS, and observed under a microscope for analysis.
# [3] = tested on: MDA-MB-231-GFP tumor tissue; assay: LC/MS targeted lipid metabolome of xenograft tumor tissue; type: in vivo, mouse; settings: compared with the control group
# Experimental: To establish the bone metastasis tumor model, 1×10^5 cells were injected into the left ventricle of each mouse (7–8 weeks old), and surgery was monitored using a cardiac ultrasound instrument. The mice were randomly divided into three groups and treated with PBS (control group, n = 6), 5 mg kg^−1 ST‐CY14 (n = 6), and 10 mg kg^−1 ST‐CY14 (n = 6) Tumor cell metastasis was monitored using an in vivo imaging instrument (IVIS Spectrum, PerkinElmer, USA). by intraperitoneal injection of 20 mg kg^−1 D‐luciferin. The mice were treated with ST‐CY14 via intravenous injection using a 100 µL PBS solution every 2 days starting on the designated day after tumor cell injection. Bone tissue with MDA‐BoM‐1833 cell metastasis was obtained and stained for TRAP. The mice sera were collected and analyzed for BSP and β‐CTx levels using ELISA (Lengton, BPE10823, BPE10438). For the orthotopic xenograft tumor model, 3×10^6 cells were injected into the fourth pair of breast pads on the left side of the mouse (4–5 weeks old). The mice were treated with ST‐CY14 every two days once the tumor volume reached 30–50 mm^3, with the same groups as in the bone metastasis tumor model. […]
structure (smiles),measurement,setting,value
C[C@@H](O)[C@@H]1NC(=O)[C@H](CCCNC(=N)N)NC(=O)[C@H](CCCNC(=N)N)NC(=O)[C@@](C)(NC(=O)[C@H](Cc2ccccc2)NC(=O)CNC(=O)[C@H](CCCCN)NC(=O)[C@H](CS)NC(=O)CNC(=O)[C@H](CCC(=O)O)NC(=O)[C@@H](N)CS)CCCC=CCCC[C@@](C)(C(=O)N[C@@H](CCCNC(=N)N)C(=O)N[C@@H](Cc2ccc(O)cc2)C(=O)N[C@@H](Cc2ccc(O)cc2)C(=O)NCC(=O)N[C@@H](CCCNC(=N)N)C(=O)N[C@@H](CCCCN)C(=O)N[C@@H](CCCCN)C(=O)N[C@@H](CCCNC(=N)N)C(=O)N[C@@H](CCCNC(=N)N)C(=O)N[C@@H](CCC(N)=O)C(=O)N[C@@H](CCCNC(=N)N)C(=O)N[C@@H](CCCNC(=N)N)C(=O)N[C@@H](CCCNC(=N)N)C(N)=O)NC1=O [ST-CY14] (H-CEGCKGF[S5]RRT[S5]RYYGRKKRRQRRR-NH2; staple 8-12),Effect on NanoBiT luminescence (Nur77-PPARγ complex),Nur77-PPARγ complex,effectively inhibited the formation of the Nur77‐PPARγ complex
same,CD36 and FABP4 transcription (qPCR),MDA-MB-231 cells [1],dose‐dependently inhibited CD36 and FABP4 expression at the transcriptional level
same,Oxygen consumption rate (OCR),MCF7 cells,significantly reduced
same,Transwell transmigration,MDA-MB-231 cells [2],inhibited the transmigration
same,"Relative abundance of lipid content (FA, PC, TAG, PE) in tumor tissue",[3],decreased
